Results as given in EP2077855B1, “THERAPEUTIC USE OF GBA2” (Yildiz, Dr. med., Yildiz, priority 2006, dated 2008).
One block for each molecule: values may come before it.

Columns and labels:
[1] = system: liver microsomal β-glucosidase activity from GBA2 (-/-) mice; assay: Liver microsomal β-glucosidase activity from GBA2 (-/-) mice; assay type: biochemical; details: liver microsomes from GBA2 (-/-) mice
[2] = molecular target: T1, bile acid β-glucosidase activity of GBA2 (Mus musculus, UniProt Q69ZF3); assay: Bile acid β-glucosidase activity, murine enzyme expressed in COS-7-cells; assay type: biochemical; details: read-out: β-Glucosidase activity % of control
T1 construct: expressed in transfected cells; host or cells: COS-7
T1 sequence (Q69ZF3 1-918): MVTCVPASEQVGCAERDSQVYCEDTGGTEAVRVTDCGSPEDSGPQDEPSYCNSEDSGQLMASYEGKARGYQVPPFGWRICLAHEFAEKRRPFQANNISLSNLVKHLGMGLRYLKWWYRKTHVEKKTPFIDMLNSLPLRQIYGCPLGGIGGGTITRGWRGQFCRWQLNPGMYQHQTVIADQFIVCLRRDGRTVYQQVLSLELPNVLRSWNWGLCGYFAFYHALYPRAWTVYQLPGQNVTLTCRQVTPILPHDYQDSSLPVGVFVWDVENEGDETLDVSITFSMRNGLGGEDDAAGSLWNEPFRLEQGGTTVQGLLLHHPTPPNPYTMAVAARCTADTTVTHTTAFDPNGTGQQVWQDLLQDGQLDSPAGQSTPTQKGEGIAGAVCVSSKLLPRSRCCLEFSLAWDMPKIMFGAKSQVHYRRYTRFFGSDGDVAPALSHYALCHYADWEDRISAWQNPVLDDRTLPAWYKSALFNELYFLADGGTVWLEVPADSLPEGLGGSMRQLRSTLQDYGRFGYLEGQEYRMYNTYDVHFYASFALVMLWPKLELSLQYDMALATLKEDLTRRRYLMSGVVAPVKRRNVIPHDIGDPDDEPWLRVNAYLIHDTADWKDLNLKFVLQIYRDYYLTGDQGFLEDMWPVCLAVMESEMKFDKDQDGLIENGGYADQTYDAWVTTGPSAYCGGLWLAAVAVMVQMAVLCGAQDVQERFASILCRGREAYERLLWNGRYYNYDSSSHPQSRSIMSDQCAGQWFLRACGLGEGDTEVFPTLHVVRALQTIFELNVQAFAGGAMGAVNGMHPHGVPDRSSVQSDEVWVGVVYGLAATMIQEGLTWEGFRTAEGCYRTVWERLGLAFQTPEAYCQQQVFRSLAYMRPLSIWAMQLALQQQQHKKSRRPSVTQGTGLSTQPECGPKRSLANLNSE

[3] = molecular target: T2, bile acid β-glucosidase activity of GBA2 (Homo sapiens, UniProt Q9HCG7); assay: Bile acid β-glucosidase activity, human enzyme expressed in COS-7-cells; assay type: biochemical; details: read-out: β-Glucosidase activity % of control
T2 construct: expressed in transfected cells; host or cells: COS-7
T2 sequence (Q9HCG7 1-927): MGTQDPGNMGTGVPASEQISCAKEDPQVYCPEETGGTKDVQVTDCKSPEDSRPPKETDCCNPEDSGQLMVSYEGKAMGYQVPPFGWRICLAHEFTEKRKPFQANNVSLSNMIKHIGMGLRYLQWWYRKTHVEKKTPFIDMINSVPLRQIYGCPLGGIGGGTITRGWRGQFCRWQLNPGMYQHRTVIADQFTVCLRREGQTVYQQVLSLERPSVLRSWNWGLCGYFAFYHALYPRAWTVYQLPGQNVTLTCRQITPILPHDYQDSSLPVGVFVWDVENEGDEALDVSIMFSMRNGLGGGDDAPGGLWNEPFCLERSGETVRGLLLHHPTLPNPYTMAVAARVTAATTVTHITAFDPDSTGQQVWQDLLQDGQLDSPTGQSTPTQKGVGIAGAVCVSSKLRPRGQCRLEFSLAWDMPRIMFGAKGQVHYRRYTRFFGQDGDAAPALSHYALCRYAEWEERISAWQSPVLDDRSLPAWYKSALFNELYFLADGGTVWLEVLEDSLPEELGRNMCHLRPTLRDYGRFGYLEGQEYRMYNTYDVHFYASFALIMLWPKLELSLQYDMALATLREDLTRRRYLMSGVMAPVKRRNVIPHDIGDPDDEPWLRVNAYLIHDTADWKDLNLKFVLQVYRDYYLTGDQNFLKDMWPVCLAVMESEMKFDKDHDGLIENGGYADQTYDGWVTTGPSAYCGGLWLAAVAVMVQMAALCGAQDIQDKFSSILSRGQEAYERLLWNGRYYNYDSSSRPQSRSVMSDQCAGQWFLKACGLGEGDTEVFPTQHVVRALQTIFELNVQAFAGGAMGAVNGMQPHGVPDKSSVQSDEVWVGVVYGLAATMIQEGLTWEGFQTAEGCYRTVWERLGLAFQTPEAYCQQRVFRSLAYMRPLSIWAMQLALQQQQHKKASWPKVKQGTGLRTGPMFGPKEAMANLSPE

GBA2 = assay: Summary statement on the screening for GBA2 antagonists; assay type: biochemical; details: summary of Example 22
[4] = molecular target: T3, bile acid glucosyltransferase activity of GBA2 (Homo sapiens, UniProt Q9HCG7); assay: Bile acid glucosyltransferase activity, human enzyme expressed in COS-7-cells; assay type: biochemical; details: read-out: Transferase activity % of control
T3 construct: expressed in transfected cells; host or cells: COS-7
T3 sequence (Q9HCG7 1-927): T2 sequence (Q9HCG7 1-927)

[5] = molecular target: T4, bile acid glucosyltransferase activity of GBA2 (Mus musculus, UniProt Q69ZF3); assay: Bile acid glucosyltransferase activity, murine enzyme expressed in COS-7-cells; assay type: biochemical; parameters: expressed in transfected cells; host or cells: COS-7; details: read-out: Transferase activity % of control
T4 sequence (Q69ZF3 1-918): T1 sequence (Q69ZF3 1-918)

[6] = system: bile acid β-glucosidase activity of GBA2; assay: Bile acid β-glucosidase activity, liver microsomal enzyme from wild type mouse; assay type: biochemical
[7] = molecular target: T4, bile acid glucosyltransferase activity of GBA2; assay: Bile acid glucosyltransferase activity, liver microsomal enzyme from wild type mouse; assay type: biochemical; parameters: from tissue; host or cells: mouse liver microsomes (wild type); details: read-out: Transferase activity % of control
rodents = details: administered to rodents; cited from earlier work
mice = details: administration to mice; cited from earlier work

Compound: CCCCCCCCCCCCN1C[C@H](O)[C@@H](O)[C@H](O)[C@H]1CO [Dodecyl-dNM, dodecyldeoxynojirimycin]
- β-Glucosidase activity % of control ([1]; 0.2 µM): 57.8%
- remaining activity at 0.0001 µM ([2]; 0.0001 µM): 59.5%
- remaining activity at 0.0002 µM [3]: 49.3%
- inhibitory effect on β-glucosidase and transferase activity (especially on GBA2) (GBA2): considerable inhibitory effect
- remaining activity at 0.002 µM ([4]; 0.002 µM): 50.7%
- remaining activity at 0.001 µM ([5]; 0.001 µM): 47.3%
- β-Glucosidase activity % of control ([6]; 0.001 µM): 51.9%
- remaining activity at 0.0006 µM ([7]; 0.0006 µM): 49.4%

Compound: CCCCN1C[C@H](O)[C@@H](O)[C@H](O)[C@H]1CO [Butyl-dNM, N-butyldeoxynojirimycin]
- globozoospermia (rodents): causes globozoospermia

- β-Glucosidase activity % of control ([1]; 20 µM): 58.9%
- remaining activity at 1000 µM ([2]; 1000 µM): 44.9%
- remaining activity at 1000 µM ([3]; 1000 µM, human enzyme expressed in COS-7-cells): 55.7%
- remaining activity at 2000 µM ([4]; 2000 µM): 64.6%
- remaining activity at 2000 µM ([5]; 2000 µM): 48.6%
- β-Glucosidase activity % of control ([6]; 50 µM): 46.9%
- remaining activity at 2000 µM ([7]; 2000 µM): 60%
Compound: O[C@H]1[C@H](O)[C@@H](O)[C@@H]2O[C@@H]2[C@@H]1O (racemic) [Conduritol B epoxide, reference compound]

Compound: OC[C@H]1NC[C@H](O)[C@@H](O)[C@@H]1O [1-Deoxynojirimycin]
- male infertility and globozoospermia (mice): causes male infertility and globozoospermia
